This note sets out measurements from patent publication US10407422B2, “Triazolopyridine inhibitors of myeloperoxidase” (priority 2015, dated 2019).

In assay [1] the target is T1, myeloperoxidase (MPO) (Homo sapiens (Human), UniProt P05164). The experiment in a line: MPO peroxidation assay (Amplex Red assay). In kind it is biochemical. The note with it: potency range class. A digest of the protocol: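 IC50 values come from a four-parameter fit of rates taken from the linear 180-540 s portion of a 15 min kinetic read of resorufin (Ex 535/Em 590 nm). Amplex Red (200 μM) plus 10 mM H2O2 was added after a 10 min room-temperature preincubation of inhibitor with 200 pM MPO and 40 nM H2O2 in 100 mM KPi, pH 7.4.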
T1 sequence (P05164 49-745): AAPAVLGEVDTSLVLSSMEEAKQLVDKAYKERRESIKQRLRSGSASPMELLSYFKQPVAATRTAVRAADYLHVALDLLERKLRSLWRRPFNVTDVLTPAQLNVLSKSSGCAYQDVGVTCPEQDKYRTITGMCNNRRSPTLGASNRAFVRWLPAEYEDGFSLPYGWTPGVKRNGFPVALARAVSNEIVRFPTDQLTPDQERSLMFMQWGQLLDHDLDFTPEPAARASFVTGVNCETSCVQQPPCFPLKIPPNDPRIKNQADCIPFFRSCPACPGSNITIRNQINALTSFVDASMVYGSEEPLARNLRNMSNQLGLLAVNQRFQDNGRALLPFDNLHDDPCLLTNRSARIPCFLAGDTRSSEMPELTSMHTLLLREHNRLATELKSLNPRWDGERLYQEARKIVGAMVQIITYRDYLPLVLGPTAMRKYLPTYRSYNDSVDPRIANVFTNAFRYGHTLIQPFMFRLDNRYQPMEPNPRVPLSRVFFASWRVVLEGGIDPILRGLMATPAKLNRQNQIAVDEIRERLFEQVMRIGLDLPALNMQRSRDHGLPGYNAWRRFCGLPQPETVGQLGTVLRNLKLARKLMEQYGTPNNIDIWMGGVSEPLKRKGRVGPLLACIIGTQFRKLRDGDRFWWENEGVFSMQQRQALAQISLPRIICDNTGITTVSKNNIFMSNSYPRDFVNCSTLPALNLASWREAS

Assay [2] addresses T1, myeloperoxidase (MPO). Nature of the assay: MPO chlorination assay (APF assay). The note with it: potency range class. In kind it is biochemical. A digest of the protocol:
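Chlorinating activity followed by APF cleavage to fluorescein (485/535 nm, 3 min kinetic read) after adding APF and 10 μM H2O2. Beforehand, 200 pM enzyme, compound and 120 mM NaCl sat 10 min at room temperature in 100 mM KPi, pH 7.4. Initial-rate slopes gave % inhibition; IC50 by Hill-slope fit.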

For the compound `CN(C)CCCNC(=O)c1ccc(Cn2cc(Cc3cc(N)nc4[nH]nnc34)cn2)cc1` [Example 89, 4-{[4-({5-Amino-3H-[1,2,3]triazolo[4,5-b]pyridin-7-yl}methyl)-1H-pyrazol-1-yl]methyl}-N-[3-(dimethylamino)propyl]benzamide], the IC50 lay within 0.001 to 0.1 µM on myeloperoxidase (MPO) [1] and 0.101 to 0.999 µM against myeloperoxidase (MPO) [2].

Regarding `NC(=O)CNC(=O)c1ccc(Cn2cc(Cc3cc(N)nc4[nH]nnc34)cn2)cc1` [Example 90, 2-[(4-{[4-({5-Amino-3H-[1,2,3]triazolo[4,5-b]pyridin-7-yl}methyl)-1H-pyrazol-1-yl]methyl}phenyl)formamido]acetamide], the IC50 on myeloperoxidase (MPO) [1] was in the range of 0.001 to 0.1 µM; on myeloperoxidase (MPO) [2], 0.101 to 0.999 µM.

For the compound `Cc1cnc(CNC(=O)c2ccc(Cn3cc(Cc4cc(N)nc5[nH]nnc45)cn3)cc2)cn1` [Example 91, 4-{[4-({5-Amino-3H-[1,2,3]triazolo[4,5-b]pyridin-7-yl}methyl)-1H-pyrazol-1-yl]methyl}-N-[(5-methylpyrazin-2-yl)methyl]benzamide], the values for the IC50 at myeloperoxidase (MPO) [1] and against myeloperoxidase (MPO) [2] were 0.001 to 0.1 µM and 0.101 to 0.999 µM, respectively.

`Nc1cc(Cc2cnn(Cc3ccc(C(=O)NCc4cnco4)cc3)c2)c2nn[nH]c2n1` [Example 92, 4-{[4-({5-Amino-3H-[1,2,3]triazolo[4,5-b]pyridin-7-yl}methyl)-1H-pyrazol-1-yl]methyl}-N-(1,3-oxazol-5-ylmethyl)benzamide]: the IC50 at myeloperoxidase (MPO) [1] fell in the range of 0.101 to 0.999 µM; against myeloperoxidase (MPO) [2] it was 1 to 10 µM.

On to `Nc1cc(Cc2cnn(Cc3ccc(C(=O)NCc4cncnc4)cc3)c2)c2nn[nH]c2n1` [Example 93, 4-{[4-({5-Amino-3H-[1,2,3]triazolo[4,5-b]pyridin-7-yl}methyl)-1H-pyrazol-1-yl]methyl}-N-(pyrimidin-5-ylmethyl)benzamide], for which the IC50 lay within 0.001 to 0.1 µM against myeloperoxidase (MPO) [1] and 0.101 to 0.999 µM against myeloperoxidase (MPO) [2].

Take `Nc1cc(Cc2cnn(Cc3ccc(C(=O)NCc4ccc(=O)[nH]c4)cc3)c2)c2nn[nH]c2n1` [Example 94, 4-{[4-({5-Amino-3H-[1,2,3]triazolo[4,5-b]pyridin-7-yl}methyl)-1H-pyrazol-1-yl]methyl}-N-[(6-oxo-1,6-dihydropyridin-3-yl)methyl]benzamide]: the IC50 was in the range of 0.001 to 0.1 µM against myeloperoxidase (MPO) [1] and 0.101 to 0.999 µM against myeloperoxidase (MPO) [2].

Take `Cc1nnc(C(C)NC(=O)c2ccc(Cn3cc(Cc4cc(N)nc5[nH]nnc45)cn3)cc2)[nH]1` (stereo not shown) [Example 95, 4-{[4-({5-Amino-3H-[1,2,3]triazolo[4,5-b]pyridin-7-yl}methyl)-1H-pyrazol-1-yl]methyl}-N-[1-(5-methyl-4H-1,2,4-triazol-3-yl)ethyl]benzamide]: the IC50 against myeloperoxidase (MPO) [1] and against myeloperoxidase (MPO) [2] was 0.101 to 0.999 µM in each case.

With `Nc1cc(Cc2cnn(Cc3ccc(C(=O)N4CCOCC4)cc3)c2)c2nn[nH]c2n1` [Example 96, 7-[(1-{[4-(Morpholine-4-carbonyl)phenyl]methyl}-1H-pyrazol-4-yl)methyl]-3H-[1,2,3]triazolo[4,5-b]pyridin-5-amine], the half-inhibitory concentration (IC50) against myeloperoxidase (MPO) [1] was in the range of 0.001 to 0.1 µM; on myeloperoxidase (MPO) [2], 0.101 to 0.999 µM.

Consider `COc1cccc(Cn2cc(Cc3cc(N)nc4[nH]nnc34)cn2)c1` [Example 97, 7-((1-(3-Methoxybenzyl)-1H-pyrazol-4-yl)methyl)-3H-[1,2,3]triazolo[4,5-b]pyridin-5-amine], for which the IC50 on myeloperoxidase (MPO) [1] and on myeloperoxidase (MPO) [2] was 0.001 to 0.1 µM throughout.

As to `Nc1cc(Cc2cnn(Cc3cccc(OC4CC4)c3)c2)c2nn[nH]c2n1` [Example 98, 7-((1-(3-Cyclopropoxybenzyl)-1H-pyrazol-4-yl)methyl)-3H-[1,2,3]triazolo[4,5-b]pyridin-5-amine], the half-inhibitory concentration (IC50) on myeloperoxidase (MPO) [1] and against myeloperoxidase (MPO) [2] was 0.001 to 0.1 µM in each case.

For the compound `Nc1cc(Cc2cnn(Cc3cccc(OCc4ccccc4)c3)c2)c2nn[nH]c2n1` [Example 99, 7-((1-(3-(Benzyloxy)benzyl)-1H-pyrazol-4-yl)methyl)-3H-[1,2,3]triazolo[4,5-b]pyridin-5-amine], the half-inhibitory concentration (IC50) on myeloperoxidase (MPO) [1] and against myeloperoxidase (MPO) [2] was 0.001 to 0.1 µM each time.

Consider `Cn1ccc(-c2cccc(Cn3cc(Cc4cc(N)nc5[nH]nnc45)cn3)c2)n1` [Example 100, 7-((1-(3-(1-Methyl-1H-pyrazol-3-yl)benzyl)-1H-pyrazol-4-yl)methyl)-3H-[1,2,3]triazolo[4,5-b]pyridin-5-amine], for which the IC50 against myeloperoxidase (MPO) [1] and against myeloperoxidase (MPO) [2] was 0.001 to 0.1 µM each time.

As for `Nc1cc(Cc2cnn(Cc3cccc(Br)c3)c2)c2nn[nH]c2n1` [Example 101, 7-((1-(3-Bromobenzyl)-1H-pyrazol-4-yl)methyl)-3H-[1,2,3]triazolo[4,5-b]pyridin-5-amine], the IC50 against myeloperoxidase (MPO) [1] and against myeloperoxidase (MPO) [2] was 0.001 to 0.1 µM in each case.

Turning to `Nc1cc(Cc2cnn(Cc3cccnc3)c2)c2nn[nH]c2n1` [Example 102, 7-((1-(Pyridin-3-ylmethyl)-1H-pyrazol-4-yl)methyl)-3H-[1,2,3]triazolo[4,5-b]pyridin-5-amine], the results for the IC50 against myeloperoxidase (MPO) [1] and against myeloperoxidase (MPO) [2] were 0.001 to 0.1 µM and 0.101 to 0.999 µM, respectively.

For `Nc1cc(Cc2cnn(Cc3ccc(C(F)(F)F)cc3)c2)c2nn[nH]c2n1` [Example 103, 7-((1-(4-(Trifluoromethyl)benzyl)-1H-pyrazol-4-yl)methyl)-3H-[1,2,3]triazolo[4,5-b]pyridin-5-amine], the IC50 against myeloperoxidase (MPO) [1] and against myeloperoxidase (MPO) [2] was 0.101 to 0.999 µM in each case.

`Nc1cc(Cc2cnn(Cc3ccc(OC(F)F)cc3)c2)c2nn[nH]c2n1` [Example 104, 7-((1-(4-(Difluoromethoxy)benzyl)-1H-pyrazol-4-yl)methyl)-3H-[1,2,3]triazolo[4,5-b]pyridin-5-amine]: the figures for the IC50 at myeloperoxidase (MPO) [1] and against myeloperoxidase (MPO) [2] were 0.001 to 0.1 µM and 0.101 to 0.999 µM, respectively.

For the compound `COc1ccc(-c2ccc(Cn3cc(Cc4cc(N)nc5[nH]nnc45)cn3)cc2)cn1` [Example 105, 7-((1-(4-(6-Methoxypyridin-3-yl)benzyl)-1H-pyrazol-4-yl)methyl)-3H-[1,2,3]triazolo[4,5-b]pyridin-5-amine], the IC50 against myeloperoxidase (MPO) [1] and at myeloperoxidase (MPO) [2] was 0.101 to 0.999 µM each time.

`Nc1cc(Cc2cnn(Cc3cccc(Oc4ccccc4)c3)c2)c2nn[nH]c2n1` [Example 106, 7-((1-(3-Phenoxybenzyl)-1H-pyrazol-4-yl)methyl)-3H-[1,2,3]triazolo[4,5-b]pyridin-5-amine]: the IC50 against myeloperoxidase (MPO) [1] and on myeloperoxidase (MPO) [2] was 0.001 to 0.1 µM in each case.

On to `Nc1cc(Cc2cnn(Cc3cn(Cc4ccccc4)nn3)c2)c2nn[nH]c2n1` [Example 107, 7-((1-((1-Benzyl-1H-1,2,3-triazol-4-yl)methyl)-1H-pyrazol-4-yl)methyl)-3H-[1,2,3]triazolo[4,5-b]pyridin-5-amine], for which the IC50 on myeloperoxidase (MPO) [1] was in the range of 0.001 to 0.1 µM; against myeloperoxidase (MPO) [2], 0.101 to 0.999 µM.

In the case of `Nc1cc(Cc2cnn(Cc3ccc(CN4CCOCC4)cc3)c2)c2nn[nH]c2n1` [Example 108, 7-((1-(4-(Morpholinomethyl)benzyl)-1H-pyrazol-4-yl)methyl)-3H-[1,2,3]triazolo[4,5-b]pyridin-5-amine], the IC50 was 0.001 to 0.1 µM against myeloperoxidase (MPO) [1] and 0.101 to 0.999 µM against myeloperoxidase (MPO) [2].

Consider `Nc1cc(Cc2cnn(Cc3ccc(Cn4cccn4)cc3)c2)c2nn[nH]c2n1` [Example 109, 7-((1-(4-((1H-Pyrazol-1-yl)methyl)benzyl)-1H-pyrazol-4-yl)methyl)-3H-[1,2,3]triazolo[4,5-b]pyridin-5-amine], for which the IC50 is 0.001 to 0.1 µM against myeloperoxidase (MPO) [1] and 0.101 to 0.999 µM against myeloperoxidase (MPO) [2].

Regarding `Nc1cc(Cc2cnn(Cc3ccc(Cn4ccnc4)cc3)c2)c2nn[nH]c2n1` [Example 110, 7-((1-(4-((1H-Imidazol-1-yl)methyl)benzyl)-1H-pyrazol-4-yl)methyl)-3H-[1,2,3]triazolo[4,5-b]pyridin-5-amine], the IC50 on myeloperoxidase (MPO) [1] and against myeloperoxidase (MPO) [2] was 0.001 to 0.1 µM throughout.

In the case of `Nc1cc(Cc2cnn(Cc3ccc(N4CCOCC4)cc3)c2)c2nn[nH]c2n1` [Example 111, 7-((1-(4-Morpholinobenzyl)-1H-pyrazol-4-yl)methyl)-3H-[1,2,3]triazolo[4,5-b]pyridin-5-amine], the half-inhibitory concentration (IC50) on myeloperoxidase (MPO) [1] lay within 1 to 10 µM; against myeloperoxidase (MPO) [2], 0.101 to 0.999 µM.

With `CN1CCN(c2ccc(Cn3cc(Cc4cc(N)nc5[nH]nnc45)cn3)cc2)CC1` [Example 112, 7-((1-(4-(4-Methylpiperazin-1-yl)benzyl)-1H-pyrazol-4-yl)methyl)-3H-[1,2,3]triazolo[4,5-b]pyridin-5-amine], the IC50 at myeloperoxidase (MPO) [1] was in the range of 0.001 to 0.1 µM; against myeloperoxidase (MPO) [2] it was 0.101 to 0.999 µM.

Take `CC(C)(C)c1ccc(Cn2cc(Cc3cc(N)nc4[nH]nnc34)cn2)cc1` [Example 113, 7-((1-(4-(tert-Butyl)benzyl)-1H-pyrazol-4-yl)methyl)-3H-[1,2,3]triazolo[4,5-b]pyridin-5-amine]: the results for the IC50 against myeloperoxidase (MPO) [1] and at myeloperoxidase (MPO) [2] were 0.001 to 0.1 µM and 0.101 to 0.999 µM, respectively.

As to `Cc1nn(-c2ccccc2)nc1Cn1cc(Cc2cc(N)nc3[nH]nnc23)cn1` [Example 114, 7-((1-((5-Methyl-2-phenyl-2H-1,2,3-triazol-4-yl)methyl)-1H-pyrazol-4-yl)methyl)-3H-[1,2,3]triazolo[4,5-b]pyridin-5-amine], the IC50 lay within 0.001 to 0.1 µM on myeloperoxidase (MPO) [1] and 0.101 to 0.999 µM against myeloperoxidase (MPO) [2].

Regarding `Nc1cc(Cc2cnn(Cc3cnn(-c4ccccn4)c3)c2)c2nn[nH]c2n1` [Example 115, 7-((1-((1-(Pyridin-2-yl)-1H-pyrazol-4-yl)methyl)-1H-pyrazol-4-yl)methyl)-3H-[1,2,3]triazolo[4,5-b]pyridin-5-amine], the results for the IC50 against myeloperoxidase (MPO) [1] and on myeloperoxidase (MPO) [2] were 0.001 to 0.1 µM and 0.101 to 0.999 µM, respectively.

Consider `Nc1cc(Cc2cnn(Cc3cn(-c4ccccc4)nn3)c2)c2nn[nH]c2n1` [Example 116, 7-((1-((1-Phenyl-1H-1,2,3-triazol-4-yl)methyl)-1H-pyrazol-4-yl)methyl)-3H-[1,2,3]triazolo[4,5-b]pyridin-5-amine], for which the values for the IC50 at myeloperoxidase (MPO) [1] and on myeloperoxidase (MPO) [2] were 0.001 to 0.1 µM and 0.101 to 0.999 µM, respectively.

`Nc1cc(Cc2cnn(Cc3ccc(Cl)cc3Cl)c2)c2nn[nH]c2n1` [Example 117, 7-((1-(2,4-Dichlorobenzyl)-1H-pyrazol-4-yl)methyl)-3H-[1,2,3]triazolo[4,5-b]pyridin-5-amine]: the IC50 against myeloperoxidase (MPO) [1] was in the range of 0.001 to 0.1 µM; on myeloperoxidase (MPO) [2] it was 0.101 to 0.999 µM.

One may read the IC50 as the midpoint of a concentration-inhibition curve.
